How the values were obtained:
[1] = literature; cited from earlier work
primed T-cells = experiment: Secondary alloMLR (3-day restimulation of primed T-cells) proliferation; format: cell-based, human; settings: Homo sapiens, T-cell; rapamycin 10 ng/ml; read-out: inhibition of proliferation in comparison to DMSO
Excerpt: Bulk donor T-cells were allostimulated with cytokine-matured, allogeneic moDCs at a DC:T-cell ratio of 1:30 as previously described (Florida Blood Services) [Betts, B C, et al. (2011) Blood 118:5330-9; Betts, B C, et al. […] Betts, B C, et al. (2011) Blood 118:5340-3]. […] Lower doses of each drug were used in these experiments to mimic expected physiologic concentrations [Siddiquee, K, et al. (2007) Proceedings of the National Academy of Sciences of the United States of America 104:7391-6; Zeiser, R, et al. (2008) Blood 111:453-62], and to better detect potential synergistic activity with the combination of rapamycin and S3I-201. After 5 days of culture at […]-cell proliferation was measured by a colorimetric assay per the manufacturer's instructions (CellTiter 96 Aqueous One Solution Cell Proliferation Assay [MTS]; Promega, Madison, Wis. USA) [Betts, B C, et al. (2011) Blood 118:5330-9; Betts, B C, et al. […] Betts, B C, et al. (2011) Blood 118:5340-3]. Absorbance/optical density (OD) was analyzed at 490 nm. Secondary alloMLR: […] Following priming, the T-cells were then rested and re-cultured with fresh first-party moDCs (DC:T-cell ratio of 1:30). […] After 3 days, T-cell proliferation was measured by a colorimetric assay as described (Promega). T-cells alone and PHA-stimulated T-cells served as negative and positive controls, respectively, for both the primary and secondary alloMLRs.

TH17 responses = settings: neutralization of IL-6, literature; cited from earlier work
[2] = tested on: DC-allosensitized T-cell proliferation; experiment: allo-MLR T-cell proliferation (colorimetric MTS assay, stimulation index); format: cell-based, human; settings: CAS 285986-31-4 titration 0-100 μM, day 4
Description: Allo-MLRs consisted of T cells stimulated by cytokine-mature moDCs (DC:T-cell ratio 1:30, 1×10^5 T cells per 100 μl medium in a 96-well plate, 37° C.). […] The allogeneic moDC stimulators were matured with a cytokine cocktail and terminally differentiated, eliminating the need for irradiation [Betts, B. C., et al. (2011) Blood 118, 5330-5339]. T-cell proliferation was quantified by a colorimetric assay (CellTiter 96 AQueous One Solution Cell Proliferation Assay [MTS]; Promega, Madison, Wis.) on day 5, per the manufacturer's instructions, with absorbance quantified at 490 nm [Betts, B. C., et al. (2011) Blood 118, 5330-5339]. The stimulation index was calculated by dividing the OD of the allo-MLR by the OD of T cells alone. PHA-stimulated T cells served as a positive control. Identical allo-MLRs were cultured with CAS 285986-31-4, to determine the dose-response effect of STAT5 inhibition on allostimulated T-cell growth. For these initial experiments, the cultures were analyzed on day 4 because of the early rapid T-cell proliferation among the STAT5 inhibitor-treated wells. The stimulation index was determined as described.

T cells = experiment: T-cell viability by Live/Dead staining in treated allo-MLRs; format: cell-based, human; settings: CAS 285986-31-4 1 μM
Description: Fluorochrome-conjugated mouse anti-human mAbs included anti-CD3, -CD4, -CD8, -CD25, -CD45RO, -CD107a, -CD127, -Foxp3, -pSTAT3/pY705, -pSTAT5/pY694, -IFN-, and -IL-17A (BD Biosciences, San Jose, Calif. USA; eBioscience; San Diego, Calif., USA; Invitrogen; Carlsbad, Calif., USA). Viability was assessed by Live/Dead staining (Invitrogen). Live events were acquired on FACSCalibur or LSRII (BD Biosciences) flow cytometers (FlowJo software, ver. 7.6.4; TreeStar, Ashland, Oreg., USA). Gates were defined by appropriate isotype controls. Naive T-cell sorting was performed on the FACSVantageDiVa (BD Biosciences). Where indicated, CD4^+ T cells were purified by magnetic-bead negative selection (Miltenyi Biotec, Auburn, Calif., USA).

STAT3 = target: T1, STAT3 (Homo sapiens, UniProt P40763); experiment: STAT3 phosphorylation in CD4+ T cells of 5 day allo-MLRs without exogenous cytokine; format: cell-based; settings: CAS 285986-31-4 1 μM, 5 day allo-MLR
T1 construct: endogenous in cells; host or cells: primary human T cells from healthy-donor PBMC, allostimulated by monocyte-derived dendritic cells
Description: (§1) No exogenous cytokine was added. DC-allosensitized T cells were harvested on day 5. […] The ratio of CD4^+, pSTAT5^Bright to CD4^+, pSTAT3^+ T cells was calculated by percentage of phosphorylation.

STAT5 = STAT5 phosphorylation in CD4+ T cells of 5 day allo-MLRs without exogenous cytokine; format: cell-based, human; settings: CAS 285986-31-4 1 μM
Description: as §1

iTregs and Tconvs = experiment: iTreg and Tconv expansion from DC-allostimulated naive CD4+ T cells; format: cell-based, human; settings: CAS 285986-31-4 1 μM
Description: To evaluate iTreg development, naive CD4^+ cells were isolated from nylon-wool-eluted T cells by magnetic-bead selection (Miltenyi Biotec), based on the positive expression of CD4 and lack of CD45RO, CD25, or both. In addition, CD127 staining of the naive CD4^+ cells was performed after the purification, to ensure depletion of natural Tregs from the cell product. Negligible amounts of CD127^-, CD25^Bright nTregs were observed after magnetic-bead purification. […] The T cells were harvested and surface stained on day 5 for CD3, -4, -25, and -127, followed by fixation and permeabilization (eBioscience), and then intracellular staining for Foxp3 [Liu, W., et al. (2006) J. Exp. Med. 203, 1701-1711; […]., et al. (2006) J. Exp. Med. 203, 1693-1700]. Tregs were characterized by gating on the live cells expressing surface CD3^+, CD4^+, and absence of CD127, followed by expression of Foxp3 and CD25^bright [Liu, W., et al. (2006) J. Exp. Med. 203, 1701-1711; […]., et al. (2006) J. Exp. Med. 203, 1693-1700]. The absolute number of iTregs and Tconv (CD4^+ CD25^-) cells was obtained by timed acquisition. The ratio of iTreg:Tconv was calculated based on the absolute number of each T-cell population.

Foxp3 TSDR = experiment: iTreg Foxp3 demethylation assay; format: cell-based, human; settings: CAS 285986-31-4 1 μM
Excerpt: iTreg Foxp3 demethylation assay. […] (2013) J. Immunol. 190, 3180-3188; Miyao, T., et al. (2012) Immunity 36, 262-275]. The degree of Foxp3 TSDR demethylation among iTregs from DMSO-treated allo-MLRs, purified nTregs, and Tconvs served as the controls [[…]., et al. (2013) Blood 122(13):2251-61]. For these experiments, iTregs and nTregs were sorted to select the CD4^+ CD25^+ CD127^- population. PCR products were amplified by using methylation or demethylation specific TSDR forward and reverse primers from bisulphate-treated genomic DNA of sorted natural Tregs. DNA fragments were cloned into a pCR2.1-Topo vector (Life Technologies, Grand Island, N.Y., USA) and verified by DNA sequencing. The following TSDR primers and probes were used for PCR: methylation forward [NT] ID NO:1), reverse [NT] ID NO:2), and hydrolysis probe [NT] (SEQ ID NO:3); and demethylation forward [NT] ID NO:4), reverse [NT] ID NO:5), and hydrolysis probe [NT] ID NO:6). Standards were diluted at concentrations ranging from 2^7 to 2^3 plasmid copies of each methylation or demethylation TSDR. Genomic DNA was isolated by using the DNeasy Blood and Tissue kit (Qiagen, Valencia, Calif., USA) from sorted natural or expanded iTregs. Genomic DNA (200-500 ng) was treated with bisulfite from the EZ DNA Methylation-Gold Kit (Zymo Research, Irvine, Calif., USA). […]

T1 sequence (P40763 whole entry): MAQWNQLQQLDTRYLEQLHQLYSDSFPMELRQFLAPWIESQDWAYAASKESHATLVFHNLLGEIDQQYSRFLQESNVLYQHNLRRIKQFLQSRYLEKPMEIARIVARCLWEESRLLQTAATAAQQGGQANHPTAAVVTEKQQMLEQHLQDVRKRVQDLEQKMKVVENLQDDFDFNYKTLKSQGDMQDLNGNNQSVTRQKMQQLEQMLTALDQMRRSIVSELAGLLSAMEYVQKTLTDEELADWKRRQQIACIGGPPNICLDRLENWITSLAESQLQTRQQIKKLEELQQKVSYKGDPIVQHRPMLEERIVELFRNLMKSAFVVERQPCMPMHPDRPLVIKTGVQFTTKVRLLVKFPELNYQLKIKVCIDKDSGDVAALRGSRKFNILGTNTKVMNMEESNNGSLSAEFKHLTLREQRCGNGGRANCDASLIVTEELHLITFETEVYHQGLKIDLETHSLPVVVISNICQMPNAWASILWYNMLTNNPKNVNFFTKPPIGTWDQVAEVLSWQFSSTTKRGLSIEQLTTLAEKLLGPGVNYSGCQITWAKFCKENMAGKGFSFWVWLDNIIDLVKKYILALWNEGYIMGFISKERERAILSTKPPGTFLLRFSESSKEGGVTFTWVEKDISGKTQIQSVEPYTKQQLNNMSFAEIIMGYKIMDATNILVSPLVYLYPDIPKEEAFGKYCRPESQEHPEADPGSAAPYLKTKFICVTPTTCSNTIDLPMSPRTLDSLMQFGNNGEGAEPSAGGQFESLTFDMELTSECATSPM

ustekinumab: monoclonal antibody targeting the p40-cytokines
efficacy in refractory GVHD [1]: demonstrated efficacy

CO[C@H]1C[C@@H]2CC[C@@H](C)[C@@](O)(O2)C(=O)C(=O)N2CCCC[C@H]2C(=O)O[C@H]([C@H](C)C[C@@H]2CC[C@@H](O)[C@H](OC)C2)CC(=O)[C@H](C)/C=C(\C)[C@@H](O)[C@@H](OC)C(=O)[C@H](C)C[C@H](C)/C=C/C=C/C=C/1C [rapamycin]
inhibition at 0.01 µg/mL (primed T-cells): 69%

tocilizumab: humanised IL-6 receptor-inhibiting monoclonal antibody
reducing TH17 responses or enhancing Treg development (TH17 responses): insufficient

O=C(N/N=C/c1coc2ccccc2c1=O)c1cccnc1 [CAS 285986-31-4]
concentration achieving maximum allostimulated T-cell growth [2]: 1 µM | toxic effects by viability staining (T cells): no toxic effects | STAT3 signaling (STAT3): maintained intact | ratio of CD4+, pSTAT5Bright to CD4+, pSTAT3+ T cells (STAT5): significantly decreased | CD4+, pSTAT5Bright population (STAT5; 5 day allo-MLR): selectively impaired | overall geometric MFI of CD4+ STAT5 phosphorylation (STAT5; 5 day allo-MLR): did not affect | allostimulated iTreg expansion (iTregs and Tconvs): significantly decreased | iTreg:Tconv ratio compared with DMSO or STAT3 inhibitor (iTregs and Tconvs): significant reduction | iTreg Foxp3 demethylation (Foxp3 TSDR): significant reduction
